Test results as given in US5538876A, “Stabilization of carboxyl esterase” (Gist-brocades, N.V., priority 1989, dated 1996).

Experiments:
carboxyl esterase [1] = target: T1, carboxyl esterase (Bacillus subtilis, UniProt Q59248); test: Effect of chemical modifier on carboxyl esterase stability; type: biochemical; settings: used as chemical group to modify the enzyme
T1 construct: document's preparation is from B. subtilis 1-85/pNAPT-7 (cloned Thai I-8 gene)
T1 sequence (Q59248 1-300): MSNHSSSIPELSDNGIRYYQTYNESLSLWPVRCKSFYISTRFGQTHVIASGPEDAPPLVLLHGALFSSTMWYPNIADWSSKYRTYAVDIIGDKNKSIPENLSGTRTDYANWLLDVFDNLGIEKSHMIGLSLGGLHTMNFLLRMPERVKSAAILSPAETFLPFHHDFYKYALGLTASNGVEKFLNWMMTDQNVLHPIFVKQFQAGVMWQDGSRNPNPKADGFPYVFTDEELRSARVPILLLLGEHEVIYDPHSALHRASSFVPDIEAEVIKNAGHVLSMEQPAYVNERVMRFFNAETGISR
Description: In this respect it is to be noticed that only small and not too hydrophilic chemical groups can be used to modify the enzyme.

carboxyl esterase [2] = target: carboxyl esterase (Bacillus subtilis, UniProt Q59248); test: Inactivation of carboxyl esterase by compounds; type: biochemical, Bacillus subtilis Thai 1-8; settings: reaction conditions, commercially interesting concentrations
Protocol: The esterase as such is stable at pH=9 and T=40° C. (with and without Tween 80 (TM)) for several hours.

Compound	effect on enzyme stability (in words) (carboxyl esterase [1])	inactivation of carboxyl esterase by the compound (in words) (carboxyl esterase [2])
O=Cc1ccccc1 [Benzaldehyde]	does not have a positive effect on enzyme stability	
O=C(O)COc1ccc2ccccc2c1 [2-naphthoxy acetic acid]		inactivate the enzyme
CC(Oc1ccc(Oc2ccc(Cl)cc2Cl)cc1)C(=O)O (stereo not drawn) [diclofop]		will inactivate the enzyme
Oc1ccccc1 [phenol]		inactivate the enzyme
CC(C)Cc1ccc(C(C)C(=O)O)cc1 (stereo not drawn) [ibuprofen, reference compound]		inactivate the enzyme
Oc1ccc2ccccc2c1 [2-naphthol]		inactivate the enzyme
